# Experimental data as given in PubChem BioAssay (NCI).
#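 Tested at 5 concentrations; 48 h exposure; 96-well plates; endpoints linearly interpolated, else capped at highest concentration. At the TGI there is no net growth.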
# System: HT29 colon
# Test: NCI tumour cell line growth inhibition, 48 h
row,SMILES,TGI
1,CN(C)CCNc1ccc([N+](=O)[O-])c2sc3ccccc3c(=O)c12,32.1 µM
2,COc1cc(NC(C)c2ccc3c(c2)OCCO3)cc(OC)c1OC (stereo not drawn),> 100 µM
3,Cc1cccc2oc3c(CC(=O)O)cccc3c(=O)c12,> 100 µM
4,S=c1nc2sc3c(c2c(Nc2ccc(Cl)cc2)[nH]1)CCCC3,> 100 µM
5,CCCCS(=O)(=O)CCC(N)P(=O)(O)O (stereo not drawn),> 100 µM
6,O=[N+]([O-])c1cccc2nc3ccccc3c(NCCCCNc3c4ccccc4nc4cccc([N+](=O)[O-])c34)c12,0.0366 µM
7,C/C=C/C(C#N)(/C=C/c1ccccc1)OP1(=O)OC(c2ccccc2)C(C)N1C (stereo not drawn),44.7 µM
8,CN(C)CCCN1c2ccc([N+](=O)[O-])cc2CCc2cccc([N+](=O)[O-])c21,32.5 µM
9,C=C(C)[C@@H]1CCC2=C[C@@H](OC2=O)[C@@H](C(=C)C)C2=CC(C(=O)O)=C(C1)O2,> 100 µM
10,S=C(N1CCN(c2ccc(Cl)c(Cl)c2)CC1)N1CCN(c2ccc(Cl)c(Cl)c2)CC1,21.3 µM
11,Cc1ccc(S(=O)(=O)NC(=O)NC(CC(N)=O)C(=O)O)cc1 (stereo not drawn),> 100 µM
12,CSCCCN(CCCSC)CCCSC,> 100 µM
13,COc1cc(-c2ccc(Br)[nH]2)[nH]c1C=NCC(C)C,3.54 µM
14,Cc1ccc(-c2n[nH]c(Cc3nc(-c4ccc(C)cc4)n[nH]3)n2)cc1,> 100 µM
15,c1ccc(C(C2=Nc3cccc4cccc(c34)N2)c2ccccc2)cc1,60.1 µM
16,Cc1nnc2n1N=C(c1ccccc1)/C(=C/c1ccc(-c3ccc(Cl)cc3)o1)S2,44.7 µM
17,CN(CC(=O)N1CC(CCl)c2ccc([N+](=O)[O-])cc21)CC(=O)N1CC(CCl)c2ccc([N+](=O)[O-])cc21 (stereo not drawn),> 100 µM
18,COC(=O)NC(Nc1ccccn1)(C(F)(F)F)C(F)(F)F,> 100 µM
19,CC(=O)Nc1oc(C)c(C)c1S(=O)(=O)c1ccc(Cl)cc1,> 100 µM
20,COC1(c2ccc(Cl)cc2)SC=C(C)n2c1noc2=O (stereo not drawn),> 100 µM
21,NC1CC(=O)c2cscc21 (stereo not drawn),> 100 µM
22,CC1=CC(=O)[C@@H](O)[C@]2(C)[C@H]3[C@@]4(O)OC[C@]35[C@H]([C@@H](C)[C@H]4O)[C@@H](OC(=O)C(C)(C)CO)C(=O)O[C@@H]5C[C@@H]12,10.4 µM

# System: IGROV1 ovarian
# Test: NCI tumour cell line growth inhibition, 48 h
row,SMILES,TGI
1,COc1ccc(/C=c2/sc3n(c2=O)C(c2ccccc2)C2(O)CCCCC2N=3)cc1 (stereo not drawn),> 12.5 µM
2,CCCN(CCC)CCc1ccc(OC2=CCN(C)CC2)cc1,> 100 µM
3,O=C1OCN(c2ccccc2)C12CCN(Cc1ccccc1)CC2,> 100 µM
4,Cc1ccc2c(c1)[nH]c(=S)n2C=C(C(N)=O)C(N)=O,> 100 µM
5,Cn1c(=O)c2c3ccccc3n(C)c2n(C)c1=O,> 100 µM
6,CN(C)CCNc1ccc([N+](=O)[O-])c2sc3ccccc3c(=O)c12,7.66 µM
7,COc1cc(NC(C)c2ccc3c(c2)OCCO3)cc(OC)c1OC (stereo not drawn),> 100 µM
8,CN1Cc2ccccc2S(=O)(=O)n2cccc2C1=O,> 100 µM
9,Cc1cccc2oc3c(CC(=O)O)cccc3c(=O)c12,> 100 µM
10,S=c1nc2sc3c(c2c(Nc2ccc(Cl)cc2)[nH]1)CCCC3,> 100 µM
11,CCCCS(=O)(=O)CCC(N)P(=O)(O)O (stereo not drawn),> 100 µM
12,O=[N+]([O-])c1cccc2nc3ccccc3c(NCCCCNc3c4ccccc4nc4cccc([N+](=O)[O-])c34)c12,2.2 µM
13,C/C=C/C(C#N)(/C=C/c1ccccc1)OP1(=O)OC(c2ccccc2)C(C)N1C (stereo not drawn),32.8 µM
14,CN(C)CCCN1c2ccc([N+](=O)[O-])cc2CCc2cccc([N+](=O)[O-])c21,29.7 µM
15,C=C(C)[C@@H]1CCC2=C[C@@H](OC2=O)[C@@H](C(=C)C)C2=CC(C(=O)O)=C(C1)O2,> 100 µM
16,S=C(N1CCN(c2ccc(Cl)c(Cl)c2)CC1)N1CCN(c2ccc(Cl)c(Cl)c2)CC1,22.5 µM
17,Cc1ccc(S(=O)(=O)NC(=O)NC(CC(N)=O)C(=O)O)cc1 (stereo not drawn),> 100 µM
18,CSCCCN(CCCSC)CCCSC,> 100 µM
19,COc1cc(-c2ccc(Br)[nH]2)[nH]c1C=NCC(C)C,7.09 µM
20,Cc1ccc(-c2n[nH]c(Cc3nc(-c4ccc(C)cc4)n[nH]3)n2)cc1,> 100 µM
21,c1ccc(C(C2=Nc3cccc4cccc(c34)N2)c2ccccc2)cc1,> 100 µM
22,Cc1nnc2n1N=C(c1ccccc1)/C(=C/c1ccc(-c3ccc(Cl)cc3)o1)S2,36.6 µM
23,CN(CC(=O)N1CC(CCl)c2ccc([N+](=O)[O-])cc21)CC(=O)N1CC(CCl)c2ccc([N+](=O)[O-])cc21 (stereo not drawn),> 100 µM
24,COC(=O)NC(Nc1ccccn1)(C(F)(F)F)C(F)(F)F,> 100 µM
25,CC(=O)Nc1oc(C)c(C)c1S(=O)(=O)c1ccc(Cl)cc1,> 100 µM
26,COC1(c2ccc(Cl)cc2)SC=C(C)n2c1noc2=O (stereo not drawn),> 100 µM
27,NC1CC(=O)c2cscc21 (stereo not drawn),> 100 µM

# System: KM12 colon
# Test: NCI tumour cell line growth inhibition, 48 h
row,SMILES,TGI
1,CCCN(CCC)CCc1ccc(OC2=CCN(C)CC2)cc1,> 100 µM
2,O=C1OCN(c2ccccc2)C12CCN(Cc1ccccc1)CC2,47.2 µM
3,Cc1ccc2c(c1)[nH]c(=S)n2C=C(C(N)=O)C(N)=O,> 100 µM
4,Cn1c(=O)c2c3ccccc3n(C)c2n(C)c1=O,> 100 µM
5,CN(C)CCNc1ccc([N+](=O)[O-])c2sc3ccccc3c(=O)c12,> 100 µM
6,COc1cc(NC(C)c2ccc3c(c2)OCCO3)cc(OC)c1OC (stereo not drawn),> 100 µM
7,CN1Cc2ccccc2S(=O)(=O)n2cccc2C1=O,> 100 µM
8,Cc1cccc2oc3c(CC(=O)O)cccc3c(=O)c12,> 100 µM
9,S=c1nc2sc3c(c2c(Nc2ccc(Cl)cc2)[nH]1)CCCC3,> 100 µM
